According to publication PMC2949700, “Identification of the full set of Listeria monocytogenes penicillin-binding proteins and characterization of PBPD2 (Lmo2812)” (BMC Microbiology, 2010):
In brackets after ≈: the same amount, converted by molar mass. Like-named read-outs stand apart in the source and are kept apart here.

Key:
L. monocytogenes EGD = assay: Microdilution MIC test; type: cell-based, Listeria monocytogenes
Protocol: (§1) To determine the effect of these mutations on cell morphology, the strains EGD, KD2812 and DA07 were analyzed by scanning electron microscopy (SEM). […] At 30°C the average cell length compared to strain EGD was increased by 38.5% in strain KD2812 and by 44.8% in the double mutant strain. The respective values at 37°C were 37.5% and 43%. […] The variant cells were characteristically curved with a bend at either one or both ends and subterminal constrictions. The number of cells with altered morphology was increased as the growth temperature was raised (Figure 3; b, e, h). Cell bending was more pronounced in the population of AD07 mutant cells (Figure 3; c, f, i). […] Similar results were found for a mutant of L. monocytogenes lacking PBP5 (PBPD1) examined in a previous study.
(§2) Microdilution tests were performed using cation-adjusted Mueller-Hinton broth (CAMHB) supplemented with 5% lysed horse blood containing two-fold dilutions of the antimicrobial agents. These mixtures were dispensed in 100 μl aliquots into plastic 96-well plates. To prepare inocula, a single colony of each strain from a TSBYE plate was transferred into 10 ml of the same medium and incubated for 24 h at 37°C. These cultures were serially diluted in CAMHB to a concentration of 10^5 cfu/ml and 100 μl aliquots were added to the microdilution plates. The plates were incubated for 18-20 h at 37°C before the reading of the MIC endpoints. The MIC was the lowest antibiotic concentration at which visible growth was inhibited.

[1] = system: L. monocytogenes AD07 (Δlmo2812 Δlmo2754); assay: Microdilution MIC test; type: cell-based, Listeria monocytogenes
Protocol: as §1, §2

[2] = system: L. monocytogenes KD2812 (Δlmo2812); assay: Microdilution MIC test; type: cell-based, Listeria monocytogenes
Protocol: as §1, §2

[3] = molecular target: purified recombinant Lmo2812 (PBPD2) (Listeria monocytogenes, UniProt Q8Y3M3); assay: Fluorescent antibiotic binding assay, purified recombinant protein; details: purified recombinant Lmo2812; antibiotic concentration for 50% of maximum binding; read-out: apparent affinity constant (Kd50)
Sequence of purified recombinant Lmo2812 (PBPD2) (Q8Y3M3 entry or part of it): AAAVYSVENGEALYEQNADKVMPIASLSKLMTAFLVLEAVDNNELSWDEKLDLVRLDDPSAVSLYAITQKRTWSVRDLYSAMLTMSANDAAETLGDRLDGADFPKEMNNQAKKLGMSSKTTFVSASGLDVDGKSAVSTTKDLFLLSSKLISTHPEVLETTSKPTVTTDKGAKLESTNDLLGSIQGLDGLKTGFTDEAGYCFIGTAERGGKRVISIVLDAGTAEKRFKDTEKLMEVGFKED
Protocol: The purified protein was incubated with different concentrations of Boc-FL (0.25, 0.5, 2.5, 5 and 10 μM). […] Lmo2812 was the major band on gels, with a slower migrating minor band thought to represent a dimeric form (Figure 2).
Figure 2 Purified recombinant L. monocytogenes Lmo2812 (PBPD2) identified with Boc-FL. Samples of purified recombinant Lmo2812 (10 μg) were labeled with Boc-FL at concentrations of 0 (1), 0.25 (2), 0.5 (3), 2.5 (4), 5 (5) and 10 μM (6). Labeled bands were detected directly on the gel, quantified and their molecular mass estimated. The affinity of the bands for Boc-FL (Kd50) was estimated from their fluorescence as a function of the concentration of Boc-FL. The names of the bands are indicated on the right, and the positions of the molecular weight markers are shown on the left.
The β-lactam binding capacity of Lmo2812 was evaluated with three different fluorescent antibiotics: Boc-FL, Boc-650 and Amp-430.
Total whole cell proteins or purified recombinant protein resuspended in 50 mM NaPi buffer, pH 7.0 were labeled by incubation at 37°C for 30 min with different concentrations of Boc-FL (Molecular Probes), Boc-650 (Molecular Probes) or Amp-430 (prepared in the laboratory by coupling ampicillin to Alexa-430), and then separated on a 10% acrylamide, 3.3% cross-linkage SDS-PAGE gel. To avoid degradation of the fluorescent β-lactam antibiotics by β-lactamases, samples were incubated at 37°C with clavulanic acid at a final concentration of 10 μg/ml or EDTA at a final concentration of 10 mM for 30 min before labeling, where appropriate. Competition experiments were carried out by preincubation of the samples with ampicillin (100 μg/ml) for 30 min at 37°C, before adding the fluorescent antibiotic. The samples were then further incubated for 30 min at 37°C. PBPs were visualized directly on the polyacryloamide gel by fluorescence using a Typhoon 9410 imager (Amersham Biosciences) with excitation wavelengths of 588, 633 or 457 nm and emission filters 520BP40, 670BP30 or 555BP20 for Boc-FL, Boc-650 and Amp-430, respectively. […]

recombinant Lmo2812 = assay: Enzymatic activity assay with natural muropeptides; type: biochemical, Listeria monocytogenes; details: for M4 (%) / M5 (%): 120 min at 37°C, HPLC
Protocol: No such cleavage occurred in the absence of Lmo2812.
The pH-dependence of the activity of Lmo2812 against monomeric muropepeptide M5 was determined in the pH range of 4.5 to 7.0. The highest activity was detected in assays performed at pH 7.0 in a Tris-Mg buffer, where half of the substrate was converted to the tetrapeptide (Table 3).
Whole total peptidoglycan and purified muropeptides were isolated from E. coli cells as described previously. A 10 μg sample of recombinant Lmo2812 was mixed with 5 μg of M5 (NAcGlc-NAcMur-pentapeptide) or D45 (NAcGlc-NAcMur-tetrapeptide-NAcGlc-NAcMur-pentapeptide) in a volume of 30 μl using three different buffer conditions: pH 4.5 (50 mM NaPi, 1% methanol, pH 4.5), pH 7.0 (30 mM Tris-HCl, 3 mM MgCl2, pH 7.0), or NaPi (50 mM sodium phosphate buffer, pH 7.0). These mixtures were incubated at 37°C for 120 min. Control samples of M5 or D45 without Lmo2812 were similarly incubated in 30 mM Tris-HCl buffer, 3 mM MgCl2, pH 7.0. The samples were analyzed by HPLC using a C18 reversed phase column and a methanol gradient to separate the peaks.

[4] = system: purified recombinant Lmo2812; assay: DD-carboxypeptidase activity assay with synthetic tripeptide; type: biochemical, Listeria monocytogenes; details: substrate up to 12.5 mM, 40 μg of purified protein
Protocol: The maximum activity was 0.75 pmoles/μg min, indicating low DD-carboxypeptidase activity under these assay conditions.
A modification of the method of Frere et al. was used for DD-carboxypeptidase activity measurement. A reaction mixture comprised of 15 μl of Nα,Nε-Diacetyl-Lys-D-Ala-D-Ala (25 mM), 3 μl of buffer (300 mM Tris-HCl pH 7.5) and 12 μl of purified recombinant Lmo2812 was prepared, incubated at 37°C and samples were taken every 10 min for 1 h. To these samples, 5 μl of 10 mg/ml (in methanol) o-Dianisidine (SIGMA) and 70 μl of enzyme/coenzyme mix (flavinadenine dinucleotide (FAD), Peroxidase and D-Amino acid Oxidase) were added. These mixtures were incubated at 37°C for 5 min, then 400 μl of methanol-water (v/v) was added and incubation continued at 37°C for another 2 min. The absorbance of each reaction was immediately read at 460 nm. A number of controls were performed: reactions containing only recombinant Lmo2812 fractions, reactions lacking recombinant Lmo2812 to establish the level of natural degradation of the tripeptide for at each sampling point, and standard samples containing known amounts of D-alanine.

[5] = Listeria monocytogenes, EGD wild-type, CAMHB with 5% lysed horse blood, 18-20 h at 37°C, read-out: MIC
[6] = AD07 double mutant, CAMHB with 5% lysed horse blood, 18-20 h at 37°C
[7] = EGD wild-type, CAMHB with 5% lysed horse blood, 18-20 h at 37°C
[8] = KD2812 mutant, CAMHB with 5% lysed horse blood, 18-20 h at 37°C

Compound: CC(=O)OCC1=C(C(=O)O)N2C(=O)[C@@H](NC(=O)Cc3cccs3)[C@H]2SC1 [cefalotin]
- MIC (L. monocytogenes EGD; [5]): 2 µg/mL (≈ 5.04 µM)

Compound: CO/N=C(\C(=O)N[C@@H]1C(=O)N2C(C(=O)O)=C(COC(C)=O)CS[C@H]12)c1csc(N)n1 [cefotaxim]
- MIC [1, 6]: 6 µg/mL (≈ 13.2 µM)
- MIC (L. monocytogenes EGD; [7]): 6 µg/mL (≈ 13.2 µM)
- MIC [2, 8]: 6 µg/mL (≈ 13.2 µM)

Compound: CO[C@@]1(NC(=O)Cc2cccs2)C(=O)N2C(C(=O)O)=C(COC(N)=O)CS[C@@H]21 [cefoxitin]
- MIC ([1]; Listeria monocytogenes): 32 µg/mL (≈ 74.9 µM)
- MIC (L. monocytogenes EGD; Listeria monocytogenes): 32 µg/mL (≈ 74.9 µM)
- MIC ([2]; Listeria monocytogenes): 32 µg/mL (≈ 74.9 µM)

Compound: CC(C)(O/N=C(\C(=O)N[C@@H]1C(=O)N2C(C(=O)[O-])=C(C[n+]3ccccc3)CS[C@H]12)c1csc(N)n1)C(=O)O [ceftazidime]
- MIC ([1]; Listeria monocytogenes): 256 µg/mL (≈ 468 µM)
- MIC (L. monocytogenes EGD; Listeria monocytogenes): 256 µg/mL (≈ 468 µM)
- MIC ([2]; Listeria monocytogenes): 256 µg/mL (≈ 468 µM)

Compound: Cc1onc(-c2ccccc2)c1C(=O)N[C@@H]1C(=O)N2[C@@H]1SC(C)(C)[C@@H]2C(=O)O [oxacillin]
- MIC ([1]; Listeria monocytogenes): 1.25 µg/mL (≈ 3.11 µM)
- MIC (L. monocytogenes EGD; [5]): 2.5 µg/mL (≈ 6.23 µM)

Compound: CCN1CCN(C(=O)N[C@@H](C(=O)N[C@@H]2C(=O)N3[C@@H]2SC(C)(C)[C@@H]3C(=O)O)c2ccccc2)C(=O)C1=O [piperacillin]
- MIC ([1]; Listeria monocytogenes): 1.25 µg/mL (≈ 2.42 µM)
- MIC (L. monocytogenes EGD; Listeria monocytogenes): 1.25 µg/mL (≈ 2.42 µM)
- MIC ([2]; Listeria monocytogenes): 1.25 µg/mL (≈ 2.42 µM)

Compound: Ampicillin-Alexa430 [Amp-430]
- Kd [3]: 18.5 µM

Compound: Bocillin-650 [Boc-650]
- Kd [3]: 2.8 µM

Compound: NAcGlc-NAcMur-pentapeptide [M5]
- M4 (%) (recombinant Lmo2812; Lmo2812, M5, NaPi, pH 7.0): 16%
- M5 (%) (recombinant Lmo2812; Lmo2812, M5, NaPi, pH 7.0): 84%
- M4 (%) (recombinant Lmo2812; Lmo2812, M5, Tris-Mg, pH 7.0): 48%
- M5 (%) (recombinant Lmo2812; Lmo2812, M5, Tris-Mg, pH 7.0): 52%
- M4 (%) (recombinant Lmo2812; Lmo2812, M5, pH 4.5): 3%
- M5 (%) (recombinant Lmo2812; Lmo2812, M5, pH 4.5): 97%

Compound: NAcGlc-NAcMur-tetrapeptide-NAcGlc-NAcMur-pentapeptide [D45]
- hydrolysis by purified Lmo2812 (recombinant Lmo2812; up to 100 μg of protein, up to 18 h): no such enzymatic activity was detected

Compound: Nα,Nε-Diacetyl-Lys-D-Ala-D-Ala
- maximum DD-carboxypeptidase activity [4]: 0.75 pmol/µg/min

Compound: penicillin
- MIC [1, 6]: 0.08 µg/mL
- MIC (L. monocytogenes EGD; [7]): 0.16 µg/mL
- MIC [2, 8]: 0.16 µg/mL
